Key:
[1] = Example 2.2 A stability of losartan potassium in SPB with propylene glycol at 50° C. (HPLC); format: physicochemical; details: for degradation: after more than 1 month (816 hours) at 50° C.
Method: X represents the amount in mL of SPB added to provide 10 mL. […] Each formulation was evaluated by HPLC. The samples were then stored at 50° C. for about 1 month and analyzed periodically.

[2] = cited from earlier work
[3] = Example 1.1 solubility of losartan potassium with and without buffering agent (visual); format: physicochemical; details: for solubility: thermodynamic from solid, visual
Method: After 24 hours, the samples were examined. […] Formulations at these pHs of about 7 or greater should prevent precipitation of the drug.

[4] = Example 1.2 solubility of losartan potassium in sodium phosphate buffers by HPLC; format: physicochemical; details: for solubility at 0 h / solubility at 48 h / solubility at 480 h: sodium phosphate buffer, aqueous buffer, thermodynamic from solid, room temperature, HPLC
Excerpt: The materials used were sodium phosphate buffer (SPB) prepared in-house and losartan potassium. […] A sample of each solution was then taken and analyzed by HPLC. […] Each sample was stored at room temperature and data was collected as a function of time.

[5] = Another study (not described): PG and PEG 400 effect on stability of losartan potassium; format: physicochemical
Excerpt: Therefore, in one embodiment PG is preferred over PEG 400.

[6] = Example 2.2 C stability with PG, glycerin and xylitol at 50° C. (HPLC); format: physicochemical; details: after about 1 month at 50° C.
Method: Even with 30 percent glycerin present, in some embodiments it is desired to add additional sweetener as the composition may not be sweet enough for some patients. Accordingly, a stronger sweetener was considered for use in the composition. […] Thus, the stability of a composition of propylene glycol (PG), glycerin, and xylitol was studied and evaluated. […] PG (1.5 mL) was then added, this mixture was vortexed for 1 minute, 3 mL of glycerin was added, and this mixture was finally vortexed for 1 minute. […] Four different formulations were prepared and analyzed. Each sample was evaluated by HPLC. The samples were then stored at 50° C. for about 1 month and analyzed periodically.

[7] = Example 2.1 stability of losartan potassium in phosphate buffers at 50° C. (HPLC); format: physicochemical; details: for stability (percent active on a weight basis): 50° C.; for degradation of the original losartan: pH 7.4
Method: The three variables were the pH of the buffer, cation of the buffer, and concentration of the phosphate salt in the buffer. The pHs studied were 7.4 and 8.2; the cations studied were potassium and sodium; and the concentrations studied were 10 mM and 100 mM.
The materials used were sodium phosphate buffer (SPB) and potassium phosphate buffer (PPB) prepared in-house and losartan potassium. […] A sample of each solution was taken and analyzed by HPLC. The different solutions were then stored at 50° C. […] The stability (measured as percent active on a weight

[8] = Example 2.2 B stability with PG and glycerin or PG and PEG 400 at 50° C. (HPLC); format: physicochemical; details: for degradation: after 816 hours at 50° C.
Method: X represents the amount in mL of SPB added to provide 8.5 mL. […] Five different formulations were prepared and analyzed. Each sample was evaluated by HPLC. The samples were then stored at 50° C. for about 1 month and analyzed periodically.

[9] = Example 2.3 stability of saccharin-containing compositions at 50° C. (HPLC); format: physicochemical; details: for stability of losartan (percent active): saccharin sodium, 50° C.
Method: Two different concentrations of glycerin (30 percent and 40 percent by volume) and 2 different pHs of the phosphate buffer (7.4 and 8.2) were studied. Four different compositions that contained saccharin were prepared and analyzed. The materials used were losartan potassium; saccharin sodium; propylene glycol (PG); glycerin; and potassium phosphate buffer (PPB) prepared in-house. […] Three mL of PG were then added to the vortexed mixture, (17-X) mL of glycerin added, and this mixture vortexed for 2 minutes. X represents the amount in mL of PPB added to provide 17 mL. Each sample was then stored at 50° C. and evaluated by HPLC periodically.

CCCCc1nc(Cl)c(CO)n1Cc1ccc(-c2ccccc2-c2nnn[nH]2)cc1.[K] [losartan potassium, 2-butyl-4-chloro-1-[p-(o-1H-tetrazol-5-ylphenyl)benzyl]imidazole-5-methanol monopotassium salt]
degradation ([1]; 10 percent PG in SPB pH 7.2): less than 0.4% | degradation ([1]; 15 percent PG in SPB pH 7.2): less than 0.4% | stability in words ([1]; 30 percent PG in SPB pH 7.2, 50° C.): unexpectedly good | solubility in alcohols [2]: soluble | solubility in chloroform [2]: practically insoluble | solubility in common organic solvents, such as acetonitrile and methylethyl ketone [2]: slightly soluble | solubility in water [2]: freely soluble | crystals after storage of the solubility sample ([3]; SPB pH 6.2, stored at 50° C. overnight, examined after 24 hours): crystals were observed | solubility ([3]; organic solvent or mixture, Ethanol): 130000 µg/mL | solubility ([3]; sodium phosphate buffer, aqueous buffer, SPB 10 mM, pH 1.9): 48 µg/mL | solubility ([3]; sodium phosphate buffer, aqueous buffer, SPB 10 mM, pH 6.2): > 241000 µg/mL | solubility ([3]; sodium phosphate buffer, aqueous buffer, SPB 10 mM, pH 7.2): 300000 µg/mL | solubility ([3]; sodium phosphate buffer, aqueous buffer, SPB 10 mM, pH 8.2): > 253000 µg/mL | solubility ([3]; Water, pH 5.5): > 243000 µg/mL | solubility ([3]; water with HCl, aqueous buffer, Water + HCl, pH 2.1): 280 µg/mL | solubility ([3]; water with NaOH, aqueous buffer, Water + NaOH, pH 11.8): > 239000 µg/mL | precipitation on storage ([4]; SPB pH of 6.2): some re-precipitation was observed | solubility in words ([4]; pH under 6.2): practically insoluble | precipitation on storage ([4]; pHs of 7.4 and higher): no precipitation was observed | solubility at 0 h ([4]; SPB pH = 1.7): 1070 µg/mL | solubility at 48 h ([4]; SPB pH = 1.7): 152 µg/mL | solubility at 480 h ([4]; SPB pH = 1.7): 30 µg/mL | solubility at 0 h ([4]; SPB pH = 6.2): 1620 µg/mL | solubility at 48 h ([4]; SPB pH = 6.2): 1650 µg/mL | solubility at 480 h ([4]; SPB pH = 6.2): 60 µg/mL | solubility at 0 h ([4]; SPB pH = 7.4): > 250000 µg/mL | solubility at 48 h ([4]; SPB pH = 7.4): > 250000 µg/mL | solubility at 480 h ([4]; SPB pH = 7.4): > 250000 µg/mL | solubility at 0 h ([4]; SPB pH = 8.2): > 250000 µg/mL | solubility at 48 h ([4]; SPB pH = 8.2): > 250000 µg/mL | solubility at 480 h ([4]; SPB pH = 8.2): > 250000 µg/mL | effect of PEG 400 on stability ([5]; in SPB): improve the stability | effect of PG on stability ([5]; in SPB): improve the stability | effect of PEG 400 on stability ([5]; in water): did not improve the stability | degradation ([6]; 5 mg/mL, 1 percent xylitol): about 0.45% | degradation ([6]; 5 mg/mL, 2 percent xylitol): about 0.5% | degradation ([6]; 25 mg/mL, 1 percent xylitol): approximately 0.7% | degradation ([6]; 25 mg/mL, 2 percent xylitol): approximately 0.7% | stability (percent active on a weight basis) ([7]; PPB, 10 mM, pH = 7.4, 0 hours): 99.93% | stability (percent active on a weight basis) ([7]; PPB, 10 mM, pH = 7.4, 24 hours): 99.90% | stability (percent active on a weight basis) ([7]; PPB, 10 mM, pH = 7.4, 264 hours): 99.14% | stability (percent active on a weight basis) ([7]; PPB, 10 mM, pH = 7.4, 672 hours): 98.74% | stability (percent active on a weight basis) ([7]; PPB, 100 mM, pH = 7.4, 0 hours): 99.93% | stability (percent active on a weight basis) ([7]; PPB, 100 mM, pH = 7.4, 24 hours): 99.90% | stability (percent active on a weight basis) ([7]; PPB, 100 mM, pH = 7.4, 264 hours): 99.32% | stability (percent active on a weight basis) ([7]; PPB, 100 mM, pH = 7.4, 672 hours): 98.84% | degradation of the original losartan ([7]; SPB 10 mM, after about 1 month at 50° C.): around 1.5% | degradation of the original losartan ([7]; SPB 100 mM, after about 1 month at 50° C.): about 1% | stability (percent active on a weight basis) ([7]; SPB, 10 mM, pH = 7.4, 0 hours): 99.96% | stability (percent active on a weight basis) ([7]; SPB, 10 mM, pH = 7.4, 24 hours): 99.90% | stability (percent active on a weight basis) ([7]; SPB, 10 mM, pH = 7.4, 264 hours): 99.12% | stability (percent active on a weight basis) ([7]; SPB, 10 mM, pH = 7.4, 672 hours): 98.49% | stability (percent active on a weight basis) ([7]; SPB, 10 mM, pH = 8.2, 0 hours): 99.93% | stability (percent active on a weight basis) ([7]; SPB, 10 mM, pH = 8.2, 24 hours): 99.91% | stability (percent active on a weight basis) ([7]; SPB, 10 mM, pH = 8.2, 264 hours): 99.68% | stability (percent active on a weight basis) ([7]; SPB, 10 mM, pH = 8.2, 672 hours): 99.59% | stability (percent active on a weight basis) ([7]; SPB, 100 mM, pH = 7.4, 0 hours): 99.93% | stability (percent active on a weight basis) ([7]; SPB, 100 mM, pH = 7.4, 24 hours): 99.90% | stability (percent active on a weight basis) ([7]; SPB, 100 mM, pH = 7.4, 264 hours): 99.34% | stability (percent active on a weight basis) ([7]; SPB, 100 mM, pH = 7.4, 672 hours): 98.90% | stability (percent active on a weight basis) ([7]; SPB, 100 mM, pH = 8.2, 0 hours): 99.93% | stability (percent active on a weight basis) ([7]; SPB, 100 mM, pH = 8.2, 24 hours): 99.91% | stability (percent active on a weight basis) ([7]; SPB, 100 mM, pH = 8.2, 264 hours): 99.77% | stability (percent active on a weight basis) ([7]; SPB, 100 mM, pH = 8.2, 672 hours): 99.66% | degradation ([7]; SPB, pH of 8.2, after about 1 month at 50° C.): about 0.4% | degradation ([8]; SPB with 15 percent PG and 10 percent PEG 400): 0.33% | degradation ([8]; SPB with 15 percent PG and up to 30 percent glycerin): less than 0.5% | effect on stability in words ([8]; increasing PEG 400 to 30 percent in the composition, 50° C.): decreased the stability | stability of losartan (percent active) ([9]; 30% glycerin, PPB pH = 7.4, PG, 0 hour): 99.88% | stability of losartan (percent active) ([9]; 30% glycerin, PPB pH = 7.4, PG, 72 hours): 99.91% | stability of losartan (percent active) ([9]; 30% glycerin, PPB pH = 7.4, PG, 288 hours): 99.88% | stability of losartan (percent active) ([9]; 30% glycerin, PPB pH = 7.4, PG, 1152 hours): 99.65% | stability of losartan (percent active) ([9]; 30% glycerin, PPB pH = 8.2, PG, 0 hour): 99.88% | stability of losartan (percent active) ([9]; 30% glycerin, PPB pH = 8.2, PG, 72 hours): 99.88% | stability of losartan (percent active) ([9]; 30% glycerin, PPB pH = 8.2, PG, 288 hours): 99.89% | stability of losartan (percent active) ([9]; 30% glycerin, PPB pH = 8.2, PG, 1152 hours): 99.86% | stability of losartan (percent active) ([9]; 40% glycerin, PPB pH = 7.4, PG, 0 hour): 99.88% | stability of losartan (percent active) ([9]; 40% glycerin, PPB pH = 7.4, PG, 72 hours): 99.88% | stability of losartan (percent active) ([9]; 40% glycerin, PPB pH = 7.4, PG, 288 hours): 99.88% | stability of losartan (percent active) ([9]; 40% glycerin, PPB pH = 7.4, PG, 1152 hours): 99.73% | stability of losartan (percent active) ([9]; 40% glycerin, PPB pH = 8.2, PG, 0 hour): 99.88% | stability of losartan (percent active) ([9]; 40% glycerin, PPB pH = 8.2, PG, 72 hours): 99.88% | stability of losartan (percent active) ([9]; 40% glycerin, PPB pH = 8.2, PG, 288 hours): 99.92% | stability of losartan (percent active) ([9]; 40% glycerin, PPB pH = 8.2, PG, 1152 hours): 99.82% | degradation in words ([9]; saccharin-containing compositions, after 12 days (288 hours) and even at 1152 hours at 50° C.): Minimal degradation

Reference: US20070026026A1 (priority 2005, published 2007)
